The target of the experiment is T1, BCL6 (Homo sapiens, UniProt P41182).
T1 construct: endogenous in cells; host or cells: T47D breast cancer epithelial cells
The experiment in a line: Immunofluorescence protocol for high content imaging of BCL6 (degradation) in T47D cells, 3 days compound treatment. To be noted: for Dmax: T47D, read-out: Mean Dmax (%)** category; for DC50: read-out: Mean DC50 (nM)* category. It counts as cell-based. The method in brief:
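For degradation, compound series (3-fold, 11 points, top 0.1 or 1 μM final) were added to adherent T47D cultures for 3 days. BCL6 immunostaining used a rabbit antibody at 1:300 and an Alexa-488 secondary, with imaging at 10× magnification.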

Structures are written as SMILES. Where only a bound is given, the exact number is not on record here.

Broadly, the Dmax is the greatest extent of degradation seen. Usually DC50 stands for the concentration giving 50% degradation.

Turning to `CNC(=O)COc1cc2cc(Nc3nc(N4CCC(O[C@H]5C[C@H](N6CCN(c7c(OC)cc8c(c7C)C(=O)N(C7CCC(=O)NC7=O)C8=O)CC6)C5)CC4)ncc3Cl)ccc2n(C(C)C)c1=O` (stereo partly drawn) [Compound 266, 2-({6-[(5-chloro-2-{4-[(1r,3r)-3-{4-[2-(2,6-dioxopiperidin-3-yl)-6-methoxy-4-methyl-1,3-dioxo-2,3-dihydro-1H-isoindol-5-yl]piperazin-1-yl}cyclobutoxy]piperidin-1-yl}pyrimidin-4-yl)amino]-2-oxo-1-(propan-2-yl)-1,2-dihydroquinolin-3-yl}oxy)-N-methylacetamide], the greatest degradation seen (Dmax) was ≥ 70% and the DC50 was < 10 nM.
For `CNC(=O)COc1cc2cc(Nc3nc(N4CCC(O[C@H]5C[C@H](N6CCN(c7ccc8c(c7Cl)CN([C@H]7CCC(=O)NC7=O)C8=O)[C@H](C)C6)C5)CC4)ncc3Cl)ccc2n(C(C)C)c1=O` [Compound 267, 2-({6-[(5-chloro-2-{4-[(1r,3r)-3-[(3R)-4-{4-chloro-2-[(3S)-2,6-dioxopiperidin-3-yl]-1-oxo-3H-isoindol-5-yl}-3-methylpiperazin-1-yl]cyclobutoxy]piperidin-1-yl}pyrimidin-4-yl)amino]-1-isopropyl-2-oxoquinolin-3-yl}oxy)-N-methylacetamide], in that order: 50 to 70% and < 10 nM.
On to `CNC(=O)COc1cc2cc(Nc3nc(N4CCC(O[C@H]5C[C@H](N6CCN(c7ccc8c(c7Cl)CN([C@@H]7CCC(=O)NC7=O)C8=O)[C@H](C)C6)C5)CC4)ncc3Cl)ccc2n(C(C)C)c1=O` [Compound 268, 2-({6-[(5-chloro-2-{4-[(1r,3r)-3-[(3R)-4-{4-chloro-2-[(3R)-2,6-dioxopiperidin-3-yl]-1-oxo-3H-isoindol-5-yl}-3-methylpiperazin-1-yl]cyclobutoxy]piperidin-1-yl}pyrimidin-4-yl)amino]-1-isopropyl-2-oxoquinolin-3-yl}oxy)-N-methylacetamide], for which the Dmax is ≥ 70% and the DC50 was < 10 nM.
As for `CNC(=O)COc1cc2cc(Nc3nc(N4CCC(O[C@H]5C[C@H](N6CCN(c7cc8c(cc7Cl)C(=O)N([C@H]7CCC(=O)NC7=O)C8)[C@H](C)C6)C5)CC4)ncc3Cl)ccc2n(C(C)C)c1=O` [Compound 269, 2-({6-[(5-chloro-2-{4-[(1r,3r)-3-[(3R)-4-{6-chloro-2-[(3S)-2,6-dioxopiperidin-3-yl]-1-oxo-2,3-dihydro-1H-isoindol-5-yl}-3-methylpiperazin-1-yl]cyclobutoxy]piperidin-1-yl}pyrimidin-4-yl)amino]-2-oxo-1-(propan-2-yl)-1,2-dihydroquinolin-3-yl}oxy)-N-methylacetamide], the Dmax was ≥ 70% and the DC50 is < 10 nM.
For the molecule `CNC(=O)COc1cc2cc(Nc3nc(N4CCC(CN5CCC6(CC5)CN(c5ccc7c(c5C(C)C)CN(C5CCC(=O)NC5=O)C7=O)C6)CC4)ncc3Cl)ccc2n(C(C)C)c1=O` (stereo not drawn) [Compound 272, 2-{[6-({5-chloro-2-[4-({2-[2-(2,6-dioxopiperidin-3-yl)-1-oxo-4-(propan-2-yl)-2,3-dihydro-1H-isoindol-5-yl]-2,7-diazaspiro[3.5]nonan-7-yl}methyl)piperidin-1-yl]pyrimidin-4-yl}amino)-2-oxo-1-(propan-2-yl)-1,2-dihydroquinolin-3-yl]oxy}-N-methylacetamide], the Dmax lay in the range of 50 to 70% and the DC50 is < 10 nM.
Regarding `CNC(=O)COc1cc2cc(Nc3nc(N4CCC(O[C@H]5C[C@H](N6CCN(c7cc(F)c8c(c7F)CN(C7CCC(=O)NC7=O)C8=O)CC6)C5)CC4)ncc3Cl)ccc2n(C(C)C)c1=O` (stereo partly drawn) [Compound 273, 2-({6-[(5-chloro-2-{4-[(1r,3r)-3-{4-[2-(2,6-dioxopiperidin-3-yl)-4,7-difluoro-1-oxo-2,3-dihydro-1H-isoindol-5-yl]piperazin-1-yl}cyclobutoxy]piperidin-1-yl}pyrimidin-4-yl)amino]-2-oxo-1-(propan-2-yl)-1,2-dihydroquinolin-3-yl}oxy)-N-methylacetamide], the Dmax fell in the range of 50 to 70% and the DC50 is < 10 nM.
Turning to `CNC(=O)COc1cc2cc(Nc3nc(N4CCC(O[C@H]5C[C@H](N6CCN(c7cc(F)c(F)c8c7C(=O)N(C7CCC(=O)NC7=O)C8)CC6)C5)CC4)ncc3Cl)ccc2n(C(C)C)c1=O` (stereo partly drawn) [Compound 274, 2-({6-[(5-chloro-2-{4-[(1r,3r)-3-{4-[2-(2,6-dioxopiperidin-3-yl)-6,7-difluoro-3-oxo-2,3-dihydro-1H-isoindol-4-yl]piperazin-1-yl}cyclobutoxy]piperidin-1-yl}pyrimidin-4-yl)amino]-2-oxo-1-(propan-2-yl)-1,2-dihydroquinolin-3-yl}oxy)-N-methylacetamide], the Dmax is < 50% and the DC50 was in the range of 10 to 50 nM.
With `CNC(=O)COc1cc2cc(Nc3nc(N4CCC(O[C@H]5C[C@H](N6CCC(O)(c7ccc8c(c7)C(=O)N(C7CCC(=O)NC7=O)C8=O)CC6)C5)CC4)ncc3Cl)ccc2n(C(C)C)c1=O` (stereo partly drawn) [Compound 275, 2-({6-[(5-chloro-2-{4-[(1r,3r)-3-{4-[2-(2,6-dioxopiperidin-3-yl)-1,3-dioxoisoindol-5-yl]-4-hydroxypiperidin-1-yl}cyclobutoxy]piperidin-1-yl}pyrimidin-4-yl)amino]-1-isopropyl-2-oxoquinolin-3-yl}oxy)-N-methylacetamide], the Dmax was ≥ 70% and the DC50 was < 10 nM.
Take `CNC(=O)COc1cc2cc(Nc3nc(N4CCC(O[C@H]5C[C@H](N6CCC(F)(c7ccc8c(c7)C(=O)N(C7CCC(=O)NC7=O)C8=O)CC6)C5)CC4)ncc3Cl)ccc2n(C(C)C)c1=O` (stereo partly drawn) [Compound 276, 2-({6-[(5-chloro-2-{4-[(1r,3r)-3-{4-[2-(2,6-dioxopiperidin-3-yl)-1,3-dioxoisoindol-5-yl]-4-fluoropiperidin-1-yl}cyclobutoxy]piperidin-1-yl}pyrimidin-4-yl)amino]-1-isopropyl-2-oxoquinolin-3-yl}oxy)-N-methylacetamide]: the Dmax was 50 to 70% and the DC50 was 10 to 50 nM.
With `CNC(=O)COc1cc2cc(Nc3nc(N4CCC(O[C@H]5C[C@H](N6CCC(O)(c7ccc8c(c7F)CN(C7CCC(=O)NC7=O)C8=O)CC6)C5)CC4)ncc3Cl)ccc2n(C(C)C)c1=O` (stereo partly drawn) [Compound 277, 2-({6-[(5-chloro-2-{4-[(1r,3r)-3-{4-[2-(2,6-dioxopiperidin-3-yl)-4-fluoro-1-oxo-2,3-dihydro-1H-isoindol-5-yl]-4-hydroxypiperidin-1-yl}cyclobutoxy]piperidin-1-yl}pyrimidin-4-yl)amino]-2-oxo-1-(propan-2-yl)-1,2-dihydroquinolin-3-yl}oxy)-N-methylacetamide], the greatest degradation seen (Dmax) lay in the range of 50 to 70% and the DC50 was < 10 nM.
Turning to `CNC(=O)COc1cc2cc(Nc3nc(N4CCC(O[C@H]5C[C@H](N6CCC(F)(c7ccc8c(c7F)CN(C7CCC(=O)NC7=O)C8=O)CC6)C5)CC4)ncc3Cl)ccc2n(C(C)C)c1=O` (stereo partly drawn) [Compound 278, 2-({6-[(5-chloro-2-{4-[(1r,3r)-3-{4-[2-(2,6-dioxopiperidin-3-yl)-4-fluoro-1-oxo-2,3-dihydro-1H-isoindol-5-yl]-4-fluoropiperidin-1-yl}cyclobutoxy]piperidin-1-yl}pyrimidin-4-yl)amino]-2-oxo-1-(propan-2-yl)-1,2-dihydroquinolin-3-yl}oxy)-N-methylacetamide], the Dmax is ≥ 70% and the DC50 is < 10 nM.
For `CNC(=O)COc1cc2cc(Nc3nc(N4CCC(O[C@H]5C[C@H](N6CC[C@H](c7ccc8c(c7F)CN(C7CCC(=O)NC7=O)C8=O)[C@H](OC)C6)C5)CC4)ncc3Cl)ccc2n(C(C)C)c1=O` (stereo partly drawn) [Compound 279, 2-({6-[(5-chloro-2-{4-[(1r,3r)-3-[(3S,4R)-4-[2-(2,6-dioxopiperidin-3-yl)-4-fluoro-1-oxo-2,3-dihydro-1H-isoindol-5-yl]-3-methoxypiperidin-1-yl]cyclobutoxy]piperidin-1-yl}pyrimidin-4-yl)amino]-2-oxo-1-(propan-2-yl)-1,2-dihydroquinolin-3-yl}oxy)-N-methylacetamide], in that order: ≥ 70% and < 10 nM.
With `CNC(=O)COc1cc2cc(Nc3nc(N4CCC(O[C@H]5C[C@H](N6CCC(c7cc(F)c8c(c7)C(=O)N(C7CCC(=O)NC7=O)C8)C(F)C6)C5)CC4)ncc3Cl)ccc2n(C(C)C)c1=O` (stereo partly drawn) [Compound 281, 2-({6-[(5-chloro-2-{4-[(1r,3r)-3-{4-[2-(2,6-dioxopiperidin-3-yl)-7-fluoro-3-oxo-2,3-dihydro-1H-isoindol-5-yl]-3-fluoropiperidin-1-yl}cyclobutoxy]piperidin-1-yl}pyrimidin-4-yl)amino]-2-oxo-1-(propan-2-yl)-1,2-dihydroquinolin-3-yl}oxy)-N-methylacetamide], the Dmax was < 50% and the DC50 was 10 to 50 nM.
Take `CNC(=O)COc1cc2cc(Nc3nc(N4CCC(O[C@H]5C[C@H](N6CC[C@H](c7ccc8c(c7F)CN(C7CCC(=O)NC7=O)C8=O)[C@H](O)C6)C5)CC4)ncc3Cl)ccc2n(C(C)C)c1=O` (stereo partly drawn) [Compound 282, 2-({6-[(5-chloro-2-{4-[(1r,3r)-3-[(3S,4R)-4-[2-(2,6-dioxopiperidin-3-yl)-4-fluoro-1-oxo-2,3-dihydro-1H-isoindol-5-yl]-3-hydroxypiperidin-1-yl]cyclobutoxy]piperidin-1-yl}pyrimidin-4-yl)amino]-2-oxo-1-(propan-2-yl)-1,2-dihydroquinolin-3-yl}oxy)-N-methylacetamide]: the Dmax lay in the range of 50 to 70% and the DC50 is < 10 nM.
As to `CNC(=O)COc1cc2cc(Nc3nc(N4CCC(O[C@H]5C[C@H](N6CCC7(c8ccc9c(c8F)CN(C8CCC(=O)NC8=O)C9=O)CC7C6)C5)CC4)ncc3Cl)ccc2n(C(C)C)c1=O` (stereo partly drawn) [Compound 283, 2-({6-[(5-chloro-2-{4-[(1r,3r)-3-{6-[2-(2,6-dioxopiperidin-3-yl)-4-fluoro-1-oxo-2,3-dihydro-1H-isoindol-5-yl]-3-azabicyclo[4.1.0]heptan-3-yl}cyclobutoxy]piperidin-1-yl}pyrimidin-4-yl)amino]-2-oxo-1-(propan-2-yl)-1,2-dihydroquinolin-3-yl}oxy)-N-methylacetamide], the Dmax is ≥ 70% and the DC50 is < 10 nM.
